In article PMC12621043, “Un-LOK-ing a New Approach for Conformational Selective Targeting of STK10 (LOK)” (ACS Medicinal Chemistry Letters, 2025):
Where two headings read alike, the source gives them in different places.

Legend:
SLK [1] = biological target: T1, SLK (Homo sapiens, UniProt Q9H2G2); test: NanoBRET target engagement assay; type: cell-based; parameters: has a greater impact on the full-length protein than on the kinase domains; host or cells: HEK293T (ATCC CRL-3216); conditions: HEK293T cells
SLK [2] = biological target: T1, SLK; test: PhosphoSens in vitro activity assay; type: biochemical; conditions: ATP 150 μM
SLK [3] = biological target: T1, SLK; test: DSF Tm panel; type: binding; parameters: purchased in-house DSF kinase panel (SGC-style construct names; the trailing letter is the construct ID); conditions: 10 μM compound
STK10 [4] = biological target: T2, STK10 (Homo sapiens, UniProt O94804); test: DSF Tm panel; type: binding; conditions: 10 μM compound
T2 construct: purchased in-house DSF kinase panel (SGC-style construct names; the trailing letter is the construct ID)
T2 sequence (O94804 18-317 limits assumed): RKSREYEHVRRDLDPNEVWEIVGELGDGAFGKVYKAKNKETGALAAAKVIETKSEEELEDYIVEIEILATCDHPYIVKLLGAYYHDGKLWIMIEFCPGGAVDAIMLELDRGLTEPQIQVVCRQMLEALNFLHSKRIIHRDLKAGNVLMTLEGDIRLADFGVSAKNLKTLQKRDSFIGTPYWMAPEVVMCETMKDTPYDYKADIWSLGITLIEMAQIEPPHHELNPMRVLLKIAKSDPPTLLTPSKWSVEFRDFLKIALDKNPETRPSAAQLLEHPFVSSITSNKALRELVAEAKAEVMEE

STK10 [5] = biological target: T2, STK10; test: PhosphoSens in vitro activity assay; type: biochemical; conditions: ATP 160 μM
STK10 [6] = biological target: T2, STK10; conditions: Figure 1; reference not given; read-out: STK10 in vitro IC50; cited from earlier work
TIE2 = conditions: Figure 1; reference not given; read-out: TIE2 in vitro IC50; cited from earlier work
BRK = conditions: Figure 1; reference not given; read-out: BRK in vitro IC50; cited from earlier work

Row | EC50 (SLK [1]) [nM] | IC50 (SLK [2]) [nM] | ΔTm at 10 µM (SLK [3]) [°C] | ΔTm at 10 µM (STK10 [4]) [°C] | IC50 (STK10 [5]) [nM] | Structure (SMILES) | IC50 (STK10 [6]) [nM] | IC50 (TIE2) [nM] | IC50 (BRK) [nM]
1 | > 50000 | 3130 ± 930 | 3.7 | 8.3 | 3160 ± 670 | Cc1cc(F)ccc1CNC(=O)Nc1ccc2cc1OCCOCCNc1ccn3ncc-2c3n1 [compound 22] |  |  | 
2 | > 50000 | 2690 ± 510 | 3.8 | 9 | 1070 ± 110 | Cc1cc(C(F)(F)F)ccc1CNC(=O)Nc1ccc2cc1OCCOCCNc1ccn3ncc-2c3n1 [compound 25] |  |  | 
3 |  |  |  |  |  | COc1ccc2cc(-c3c(-c4ccncc4)nc(-c4ccc(S(C)(=O)=O)cc4C)n3C)ccc2c1 [SB-633825 (3), SB-633825] | 66 | 3.5 | 150
